Experimental findings from ChEMBL document CHEMBL5512658, “Development of benzimidazole-based compounds as novel capsid assembly modulators for the treatment of HBV infection” (Eur J Med Chem, 2024) are described below.

Active and inactive are the calls of the source. No cut-off for these calls is given here.

The subject of data set [1] is Hepatitis B virus. In words: Antiviral activity against HBV infected in human HepAD38 cells assessed as inhibition of viral replication. The class given is functional, organism-based.
Data set [2] concerns the target T1, Core antigen (Hepatitis B virus, UniProt Q03732). Put plainly: Inhibition of Hepatitis B virus core protein expressed in HBC cells derived from HEK293T cells assessed as reduction in HBcAg level incubated for 6 hrs by Nano-glo luciferase assay. The class given is cell-based. As to conditions: read-out: IC50.
The test system of data set [3] is HepG2. Put plainly: Cytotoxicity against human HepG2 cells measured after 3 days by resazurin staining based analysis. The class given is functional. The note with it: HepG2, 72 h, time 3 day. On the technique in general: The colour change of resazurin is a common sign of viable cells or microbes.
Data set [4] deals with Hepatitis B virus. In words: Antiviral activity against HBV infected in human HePAD38 cells assessed as reduction in intracellular core HBV DNA level media replaced for every 2 to 3 days incubated for 7 days by Western blot analysis. The class given is functional, organism-based. On the technique in general: A western blot detects proteins with antibodies after separation by electrophoresis.

Data set [5] has as its system Hepatitis B virus core protein. In words: Selectivity index, ratio of CC50 for human HepG2 cells to IC50 for Hepatitis B virus core protein expressed in HEK293T cells. The class given is toxicity, cell-based. The note with it: read-out: Ratio CC50/IC50.
For data set [6], the system named is Hepatitis B virus. Put plainly: Antiviral activity against HBV infected in human HePAD38 cells assessed as inhibition of HBV capsid assembly by measuring secretion of particles containing HBV DNA at 5 uM incubated for 7 days by Southern blot analysis. The class given is functional, organism-based. As to conditions: time 7.0 day.
Data set [7] relates to Hepatitis B virus. Put plainly: Antiviral activity against HBV infected in human HePAD38 cells assessed as reduction HBV capsid level at 5 uM media replaced for every 2 to 3 days incubated for 7 days by Western blot analysis. The class given is functional, organism-based. As to conditions: time 7.0 day.
The target in data set [8] is T1, Core antigen. In words: Inhibition of Hepatitis B virus core protein expressed in HBC cells derived from HEK293T cells assessed as reduction in HBcAg level […] incubated for 6 hrs by Nano-glo luciferase assay. The class given is cell-based.
In data set [9] the test system is Hepatitis B virus. Put plainly: Antiviral activity against HBV infected in human HePAD38 cells assessed as decrease in HBV DNA level at 2.5 to 20 uM by q-PCR analysis. As to conditions: dose 2.5-20 µM. The class given is functional, organism-based.
Data set [10] relates to Hepatitis B virus. Put plainly: Antiviral activity against HBV infected in BALB/c mouse hydrodynamic injection model hydrodynamically injected with replication-competent HBV DNA plasmid assessed as reduction in HBV DNA copy numbers in plasma at 100 mg/kg, po administered twice daily for 14 days. The class given is functional, organism-based. The note with it: time 14.0 day.

For data set [11], the system named is Hepatitis B virus. In words: Antiviral activity against HBV infected in BALB/c mouse hydrodynamic injection model hydrodynamically injected with replication-competent HBV DNA plasmid assessed as decrease in HBsAG level in mouse serum at 100 mg/kg, po administered twice daily for 7 days by ELISA method. The class given is functional, organism-based. The note with it: time 7.0 day. In general terms: An ELISA detects its analyte on a solid surface through an enzyme-linked reagent.

Data set [12] in a line: Toxicity in BALB/c mouse at 100 mg/kg, po administered twice daily for 14 days. The class given is organism-based. The note with it: in vivo, 336 h, time 14 day.
Data set [13] concerns Hepatitis B virus. In words: Antiviral activity against HBV infected in human HepAD38 cells assessed as inhibition of viral replication by Southern blot analysis. The class given is functional, organism-based.
In data set [14] the test system is Hepatitis B virus. In words: Antiviral activity against HBV infected in human HepAD38 cells assessed as inhibition of viral replication incubated for 6 days by qPCR analysis. The class given is functional, organism-based. The note with it: HePAD38, 144 h.

T1 sequence (Q03732 whole entry): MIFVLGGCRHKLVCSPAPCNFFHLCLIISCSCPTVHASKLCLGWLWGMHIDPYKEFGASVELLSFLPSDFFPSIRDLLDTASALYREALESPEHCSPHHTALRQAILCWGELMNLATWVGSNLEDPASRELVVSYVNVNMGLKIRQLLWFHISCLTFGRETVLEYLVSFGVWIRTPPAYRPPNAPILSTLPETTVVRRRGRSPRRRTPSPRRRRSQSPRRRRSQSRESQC

Regarding `COC(=O)C1=C(C)NC(c2ncc(F)cc2F)=N[C@H]1c1ccc(F)cc1Cl`, in data set [1], the half-maximal effective concentration (EC50) (in general, the concentration needed to bring the measured effect to its halfway point) was 0.0243 µM.

In the case of `COc1ccc(Cc2nc3ccccc3n2C(C)=O)cc1`, the IC50 (as a rule, the concentration needed to halve the response being measured) in data set [2] is 1.57 µM. Also, half-maximal cytotoxicity in [3] (CC50) was put at 42.8 µM. The EC50 in data set [4] stood at 16.1 µM. Also, the selectivity ratio in data set [5] turned out to be 27.2. Also, the result in data set [6] was Active.

Take `COc1ccc(Sc2nc3ccccc3[nH]2)cc1`: the IC50 in data set [2] amounted to 1.08 µM. Also, it took 8.13 µM to reach half-maximal cytotoxicity in data set [3] (CC50). Besides, the EC50 in [4] came to 2 µM. In addition, the selectivity ratio in data set [5] was determined as 7.53. For the same compound, the result in data set [7] and in data set [6] was Active.

On to `COc1ccc(CCc2nc3ccccc3[nH]2)cc1`, for which the IC50 in [2] was determined as 34.3 µM. In data set [3], the CC50 (usually the concentration that lowers cell viability or growth by half) was more than 100 µM. The selectivity ratio in [5] was more than 2.91. The result in [7] and in data set [6] was Active.

In the case of `O=C(NCc1cc(F)c(F)c(F)c1)c1ccc(F)c(S(=O)(=O)N2CCC(O)CC2)c1`, the EC50 in data set [1] turned out to be 0.29 µM.

For the compound `COc1ccc(-c2nc3ccccc3[nH]2)cc1`, in data set [3], the midpoint of cytotoxicity, the CC50, lay at 10.3 µM. Also, in [8], the IC50 result is on record as “Not Active”.

Take `COc1ccc(Cc2nc3ccccc3n2CC(O)COc2ccccc2)cc1` (stereo not drawn): the IC50 in data set [2] is 1.99 µM. In [3], this compound yielded a CC50 of 12.3 µM. The EC50 in data set [4] is 0.07 µM. In addition, the selectivity ratio in [5] stood at 6.18.

In the case of `COc1ccc(Cc2nc3ccccc3n2CCCCO)cc1`, in [2], the IC50 is 2.45 µM. In data set [3], this compound returned a CC50 of 34.4 µM. Besides, the selectivity ratio in data set [5] came to 14.1. The outcome in data set [7] and in data set [6] was Active.

With `COc1ccc(CCCc2nc3ccccc3[nH]2)cc1`, the IC50 in [2] stood at 22.8 µM. The compound further gave a CC50 in data set [3] of 47 µM. Further, in data set [5], the selectivity ratio turned out to be 2.06. For the same compound, the result in data set [7] and in data set [6] was Active.

For `COCCCn1c(Cc2ccc(OC)cc2)nc2ccccc21`, the IC50 in [2] stood at 9.65 µM. This compound also returned a CC50 in data set [3] of more than 100 µM. Further, the selectivity ratio in data set [5] is more than 10.4. For the same compound, the result in data set [7] and in data set [6] was Active.

Compound `COc1ccc(Cc2nc3ccccc3s2)cc1` had a CC50 in data set [3] of 32.6 µM. Further, the IC50 entry in data set [8] is “Not Active”.

`COc1ccc(Sc2nc3ccccc3n2CCCCCO)cc1`: in [2], the IC50 came to 0.6 µM. The compound further had a CC50 in data set [3] of more than 100 µM. For the same compound, the EC50 in [4] is 5.7 µM. The selectivity ratio in data set [5] was more than 167. Besides, the outcome in data set [7] and in data set [6] was Active.

`COc1ccc(Sc2nc3ccccc3n2CCO)cc1`: the IC50 in [2] was 0.51 µM. The compound also showed a CC50 in data set [3] of 84.3 µM. In addition, the EC50 in data set [4] came to 2.24 µM. In data set [5], the selectivity ratio was found to be 165. The outcome in data set [7], in data set [6], in data set [9], in data set [10] and in data set [11] was Active. Moreover, in data set [12], the Activity result is recorded as “Non-Toxic”.

`COc1ccc(Cc2nc3ccccc3n2CCCCCO)cc1`: in data set [2], the IC50 worked out at 0.95 µM. This compound also registered a CC50 in data set [3] of 29.5 µM. Moreover, the EC50 in data set [4] stood at 15.9 µM. Further, the selectivity ratio in data set [5] came out at 31.1. Besides, the outcome in data set [7] and in data set [6] was Active.

With `COc1ccc(Cc2nc3ccccc3n2C)cc1`, the IC50 in data set [2] came out at 4.85 µM. This compound returned a CC50 in data set [3] of 22.1 µM. Also, in data set [5], the selectivity ratio worked out at 4.55. Also, the outcome in data set [7] and in data set [6] was Active.

As for `CCOC(=O)C1=C(CN2CCOCC2)NC(c2nccs2)=N[C@H]1c1ccc(F)cc1Br`, the EC50 in [13] stood at 0.0622 µM.

Turning to `OCCn1c(Sc2ccc(Br)cc2)nc2ccccc21`, the IC50 in data set [2] was determined as 2.01 µM. For the same compound, the CC50 in [3] was found to be 71.8 µM. In addition, the EC50 in [4] was 1.99 µM. Further, the selectivity ratio in data set [5] stood at 35.7.

Consider `COc1ccc(Cc2nc3ccccc3n2CCO)cc1`, for which, in data set [2], the IC50 was found to be 2.37 µM. In data set [3], this compound displayed a CC50 of more than 100 µM. Further, the selectivity ratio in data set [5] is more than 42.2. Also, the result in [7] and in [6] was Active.

Consider `OCCn1c(Sc2ccc(Cl)cc2)nc2ccccc21`, for which the IC50 in data set [2] amounted to 3.6 µM. The compound also gave a CC50 in [3] of 50.7 µM. Besides, in data set [4], the EC50 was 6.37 µM. Moreover, the selectivity ratio in data set [5] was 14.1.

For `CCOC(=O)n1c(Cc2ccc(OC)cc2)nc2ccccc21`, in data set [2], the IC50 was determined as 2.18 µM. The compound also showed a CC50 in [3] of 44.2 µM. Moreover, the selectivity ratio in [5] stood at 20.3. The outcome in data set [7] and in data set [6] was Active.

As to `COc1ccccc1/C(Br)=C(/NC(=O)c1ccc([N+](=O)[O-])cc1)C(=O)N1CCCCC1`, in [14], the EC50 was found to be 0.2 µM.

In the case of `COc1ccc(Cc2nc3ccccc3[nH]2)cc1`, in data set [2], the IC50 was found to be 2.05 µM. The CC50 in [3] was more than 100 µM. In addition, in data set [4], the EC50 turned out to be 11.9 µM. Besides, the selectivity ratio in data set [5] was more than 48.8. Further, the outcome in data set [6] was Active.
